Laboratory results as given in US20230139171A1 (SITA Information Networking Computing UK Limited, priority 2019, published 2023).

Key:
Type in all cases: cell-based
human TLR9 = target: T1, human TLR9 (Homo sapiens, UniProt Q9NR96); experiment: TLR9 inhibition reporter assay (HEK-Blue cells, SEAP reporter, ODN2006 stimulation); conditions: HEK-Blue cells overexpressing human TLR9, SEAP reporter, ODN2006 5 nM
T1 construct: host or cells: HEK-Blue cells
T1 sequence (Q9NR96 26-1032): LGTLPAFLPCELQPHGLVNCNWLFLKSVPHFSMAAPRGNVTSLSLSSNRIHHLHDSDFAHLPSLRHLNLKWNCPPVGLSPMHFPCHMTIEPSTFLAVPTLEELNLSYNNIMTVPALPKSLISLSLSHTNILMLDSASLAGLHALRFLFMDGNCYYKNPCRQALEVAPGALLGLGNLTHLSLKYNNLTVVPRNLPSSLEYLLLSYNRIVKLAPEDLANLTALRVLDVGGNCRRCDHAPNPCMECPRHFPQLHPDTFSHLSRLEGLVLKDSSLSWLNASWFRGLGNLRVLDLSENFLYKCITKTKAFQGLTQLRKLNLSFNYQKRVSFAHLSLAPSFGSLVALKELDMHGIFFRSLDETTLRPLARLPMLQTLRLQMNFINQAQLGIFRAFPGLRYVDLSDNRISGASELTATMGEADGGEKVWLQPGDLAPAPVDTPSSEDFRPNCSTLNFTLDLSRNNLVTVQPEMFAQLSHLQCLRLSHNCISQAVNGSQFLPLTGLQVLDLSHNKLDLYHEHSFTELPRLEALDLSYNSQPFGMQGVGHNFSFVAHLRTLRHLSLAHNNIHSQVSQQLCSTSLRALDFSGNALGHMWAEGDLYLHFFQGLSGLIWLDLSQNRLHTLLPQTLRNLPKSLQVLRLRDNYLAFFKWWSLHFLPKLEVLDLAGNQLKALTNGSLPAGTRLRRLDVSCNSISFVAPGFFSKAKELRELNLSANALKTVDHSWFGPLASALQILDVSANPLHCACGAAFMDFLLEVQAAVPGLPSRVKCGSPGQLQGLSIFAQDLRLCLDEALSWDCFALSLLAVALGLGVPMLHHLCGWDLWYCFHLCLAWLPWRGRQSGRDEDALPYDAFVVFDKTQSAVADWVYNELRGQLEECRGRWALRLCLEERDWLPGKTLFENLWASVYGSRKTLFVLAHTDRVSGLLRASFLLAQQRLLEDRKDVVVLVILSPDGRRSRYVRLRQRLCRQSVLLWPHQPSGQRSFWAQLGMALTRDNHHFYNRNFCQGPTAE
Procedure, shortened: (§1)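 Dose–response from 0.05 nM to 50 μM was run in HEK-Blue human TLR7, TLR8 and TLR9 reporter cells. After 30 min at room temperature with compound, ligand was added (TLR7 gardiquimod 7.5 μM; TLR8 R848 15.9 μM; TLR9 ODN2006 5 nM) and SEAP measured next day, at 22 h.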

human TLR7 = target: T2, human TLR7 (Homo sapiens, UniProt Q9NYK1); experiment: TLR7 inhibition reporter assay (HEK-Blue cells, SEAP reporter, gardiquimod stimulation); conditions: HEK-Blue cells overexpressing human TLR7, SEAP reporter, gardiquimod 7.5 μM; read-out: TLR7 IC50
T2 construct: host or cells: HEK-Blue cells
T2 sequence (Q9NYK1 27-1049): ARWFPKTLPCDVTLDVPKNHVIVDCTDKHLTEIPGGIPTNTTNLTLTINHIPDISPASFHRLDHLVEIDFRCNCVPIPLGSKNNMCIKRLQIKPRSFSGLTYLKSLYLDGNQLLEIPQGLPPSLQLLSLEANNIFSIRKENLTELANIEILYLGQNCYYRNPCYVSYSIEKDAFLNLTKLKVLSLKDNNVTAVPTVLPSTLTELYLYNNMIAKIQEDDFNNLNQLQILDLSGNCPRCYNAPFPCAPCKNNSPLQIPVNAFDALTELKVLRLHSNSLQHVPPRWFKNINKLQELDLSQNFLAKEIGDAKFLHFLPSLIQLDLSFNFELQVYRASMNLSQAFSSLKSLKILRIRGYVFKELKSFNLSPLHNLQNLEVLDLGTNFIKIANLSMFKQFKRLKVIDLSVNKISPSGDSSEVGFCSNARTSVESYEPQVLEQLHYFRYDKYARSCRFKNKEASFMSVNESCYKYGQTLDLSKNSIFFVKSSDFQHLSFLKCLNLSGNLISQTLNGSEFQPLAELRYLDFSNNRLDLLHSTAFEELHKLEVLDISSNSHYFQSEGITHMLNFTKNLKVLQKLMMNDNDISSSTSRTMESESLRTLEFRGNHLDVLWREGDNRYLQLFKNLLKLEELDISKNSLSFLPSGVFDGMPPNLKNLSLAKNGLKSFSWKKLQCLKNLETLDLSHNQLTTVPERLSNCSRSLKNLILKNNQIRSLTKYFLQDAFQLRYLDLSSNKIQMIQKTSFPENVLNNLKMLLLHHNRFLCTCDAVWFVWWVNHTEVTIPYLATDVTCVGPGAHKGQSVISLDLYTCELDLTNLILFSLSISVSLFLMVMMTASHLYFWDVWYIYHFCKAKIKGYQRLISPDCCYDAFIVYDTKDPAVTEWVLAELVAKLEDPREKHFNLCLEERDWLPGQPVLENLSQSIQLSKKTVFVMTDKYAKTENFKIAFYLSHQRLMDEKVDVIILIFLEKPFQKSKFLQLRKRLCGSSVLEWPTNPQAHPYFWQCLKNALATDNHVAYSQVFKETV
Procedure, shortened: as §1

human TLR8 = target: T3, human TLR8 (Homo sapiens, UniProt Q9NR97); experiment: TLR8 inhibition reporter assay (HEK-Blue cells, SEAP reporter, R848 stimulation); conditions: HEK-Blue cells overexpressing human TLR8, SEAP reporter, R848 15.9 μM; read-out: TLR8 IC50
T3 construct: host or cells: HEK-Blue cells
T3 sequence (Q9NR97 27-1041): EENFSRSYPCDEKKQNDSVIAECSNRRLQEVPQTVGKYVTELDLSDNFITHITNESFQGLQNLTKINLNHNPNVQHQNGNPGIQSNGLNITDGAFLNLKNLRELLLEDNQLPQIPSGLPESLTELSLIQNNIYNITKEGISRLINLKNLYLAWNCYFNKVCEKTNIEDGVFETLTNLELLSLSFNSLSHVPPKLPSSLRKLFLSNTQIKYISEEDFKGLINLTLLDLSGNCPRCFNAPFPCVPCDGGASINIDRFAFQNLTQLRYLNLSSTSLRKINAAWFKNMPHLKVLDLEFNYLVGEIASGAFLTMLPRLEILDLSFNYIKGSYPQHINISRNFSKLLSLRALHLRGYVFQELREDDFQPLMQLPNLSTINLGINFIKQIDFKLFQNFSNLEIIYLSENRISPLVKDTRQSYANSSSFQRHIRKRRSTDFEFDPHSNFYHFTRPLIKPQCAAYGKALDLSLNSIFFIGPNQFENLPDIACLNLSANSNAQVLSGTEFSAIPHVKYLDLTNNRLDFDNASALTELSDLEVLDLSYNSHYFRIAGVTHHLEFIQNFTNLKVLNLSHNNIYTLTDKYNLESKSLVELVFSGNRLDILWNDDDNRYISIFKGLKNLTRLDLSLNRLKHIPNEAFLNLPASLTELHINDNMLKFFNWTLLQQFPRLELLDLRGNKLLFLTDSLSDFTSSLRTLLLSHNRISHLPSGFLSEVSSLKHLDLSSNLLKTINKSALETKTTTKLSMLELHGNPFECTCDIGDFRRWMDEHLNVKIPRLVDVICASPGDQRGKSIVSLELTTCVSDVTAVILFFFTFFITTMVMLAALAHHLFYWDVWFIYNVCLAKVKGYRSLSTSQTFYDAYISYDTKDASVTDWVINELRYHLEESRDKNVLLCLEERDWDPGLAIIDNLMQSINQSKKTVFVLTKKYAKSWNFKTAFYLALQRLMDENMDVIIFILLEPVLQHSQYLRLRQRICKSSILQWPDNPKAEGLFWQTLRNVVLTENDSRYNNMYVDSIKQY
Procedure, shortened: as §1

Row | SMILES | IC50 (human TLR9) | IC50 (human TLR7) | IC50 (human TLR8)
1 | Cc1c(-c2[nH]c3sc(C4CCC(NC5COC5)CC4)nc3c2C(C)C)cn(C)c(=O)c1C (single isomer, unassigned) [Example 241, 5-(6-isopropyl-2-(4-(oxetan-3-ylamino)cyclohexyl)-4H-pyrrolo[3,2-d]thiazol-5-yl)-1,3,4-trimethylpyridin-2(1H)-one] | > 50 µM | 0.00806 µM | 0.00319 µM
2 | Cc1c(-c2[nH]c3sc(C4CCC(NC5COC5)CC4)nc3c2C(C)C)cn(C)c(=O)c1C (single isomer, unassigned) [Example 242, 5-(6-isopropyl-2-(4-(oxetan-3-ylamino)cyclohexyl)-4H-pyrrolo[3,2-d]thiazol-5-yl)-1,3,4-trimethylpyridin-2(1H)-one] | > 50 µM | 0.0471 µM | 0.0161 µM
3 | Cc1c(-c2[nH]c3sc(C4CCC(N5CC6(COC6)C5)CC4)nc3c2C(C)C)cn(C)c(=O)c1C (single isomer, unassigned) [Example 246, 5-(2-(4-(2-oxa-6-azaspiro[3.3]heptan-6-yl)cyclohexyl)-6-isopropyl-4H-pyrrolo[3,2-d]thiazol-5-yl)-1,3,4-trimethylpyridin-2(1H)-one] | > 50 µM | 0.0608 µM | 0.154 µM
4 | CCN(C)C1CCC(c2nc3c(C(C)C)c(-c4cn(C)c(=O)c(C)c4C)[nH]c3s2)CC1 (single isomer, unassigned) [Example 247, 5-(2-(4-(ethyl(methyl)amino)cyclohexyl)-6-isopropyl-4H-pyrrolo[3,2-d]thiazol-5-yl)-1,3,4-trimethylpyridin-2(1H)-one] | 42.5 µM | 0.00587 µM | 0.00442 µM
5 | Cc1c(-c2[nH]c3sc(C4CCC(NC5CCOCC5)CC4)nc3c2C(C)C)cn(C)c(=O)c1C (single isomer, unassigned) [Example 250, 5-(6-isopropyl-2-(4-((tetrahydro-2H-pyran-4-yl)amino)cyclohexyl)-4H-pyrrolo[3,2-d]thiazol-5-yl)-1,3,4-trimethylpyridin-2(1H)-one] | 43.3 µM | 0.0468 µM | 0.0436 µM

Now those with a lower IC50 (human TLR9), led by results:

Row | IC50 (human TLR9) | IC50 (human TLR7) | IC50 (human TLR8) | SMILES
6 | 29.8 µM | 0.0164 µM | 0.0021 µM | COC(C)(C)CNC1CCC(c2nc3c(C(C)C)c(-c4cn(C)c(=O)c(C)c4C)[nH]c3s2)CC1 (single isomer, unassigned) [Example 243, 5-(6-isopropyl-2-(4-((2-methoxy-2-methylpropyl)amino)cyclohexyl)-4H-pyrrolo[3,2-d]thiazol-5-yl)-1,3,4-trimethylpyridin-2(1H)-one]
7 | 25.3 µM | 0.044 µM | 0.0175 µM | COC(C)(C)CNC1CCC(c2nc3c(C(C)C)c(-c4cn(C)c(=O)c(C)c4C)[nH]c3s2)CC1 (single isomer, unassigned) [Example 244, 5-(6-isopropyl-2-(4-((2-methoxy-2-methylpropyl)amino)cyclohexyl)-4H-pyrrolo[3,2-d]thiazol-5-yl)-1,3,4-trimethylpyridin-2(1H)-one]
8 | 22.9 µM | 0.0026 µM | 0.00065 µM | Cc1c(-c2[nH]c3sc(C4CCC(N5CC6(COC6)C5)CC4)nc3c2C(C)C)cn(C)c(=O)c1C (single isomer, unassigned) [Example 245, 5-(2-(4-(2-oxa-6-azaspiro[3.3]heptan-6-yl)cyclohexyl)-6-isopropyl-4H-pyrrolo[3,2-d]thiazol-5-yl)-1,3,4-trimethylpyridin-2(1H)-one]
9 | 19.8 µM | 0.00634 µM | 0.00119 µM | Cc1c(-c2[nH]c3sc(C4CCC(NC5CCOCC5)CC4)nc3c2C(C)C)cn(C)c(=O)c1C (single isomer, unassigned) [Example 249, 5-(6-isopropyl-2-(4-((tetrahydro-2H-pyran-4-yl)amino)cyclohexyl)-4H-pyrrolo[3,2-d]thiazol-5-yl)-1,3,4-trimethylpyridin-2(1H)-one]
10 | 14 µM | 0.00833 µM | 0.012 µM | CCN(C)C1CCC(c2nc3c(C(C)C)c(-c4cn(C)c(=O)c(C)c4C)[nH]c3s2)CC1 (single isomer, unassigned) [Example 248, 5-(2-(4-(ethyl(methyl)amino)cyclohexyl)-6-isopropyl-4H-pyrrolo[3,2-d]thiazol-5-yl)-1,3,4-trimethylpyridin-2(1H)-one]
11 | 6.23 µM | 0.00372 µM | 0.00282 µM | Cc1c(-c2[nH]c3sc(C4CCC(N5CC6(CCOCC6)C5)CC4)nc3c2C(C)C)cn2ncnc2c1C (single isomer, unassigned) [Example 240, 2-(4-(5-(7,8-dimethyl-[1,2,4]triazolo[1,5-a]pyridin-6-yl)-6-isopropyl-4H-pyrrolo[3,2-d]thiazol-2-yl)cyclohexyl)-7-oxa-2-azaspiro[3.5]nonane]
